{
  "source": "patent US20230143604A1",
  "about": "“QW DOSING OF GIP RECEPTOR AGONIST PEPTIDE COMPOUNDS AND USES THEREOF” (TAKEDA PHARMACEUTICAL COMPANY LIMITED, priority 2020, published 2023)",
  "key": {"[1]": {"test": "Solubility in phosphate buffer pH 7.4", "procedure,_shortened": "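3 mg of peptide treated with 100 μL portions of 200 mM phosphate buffer pH 7.4, sonicating/vortexing up to 1 min, with further buffer added until fully dissolved. Solubility then quantified by HPLC.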"}, "[2]": {"test": "Serum half-life and percentage remaining at 48 hours", "format": "in vitro ADME", "conditions": "human plasma, 500 nM peptide, 37° C.; for half-life at 500 nM: read-out: Serum t1/2 (converted)", "description": "Human plasma (mixed gender: sodium heparin is used as anti-coagulant; pre-adjusted to pH 7.4—NB alternative species may be used) is spiked with each test peptide (500 nM) and incubated·cn=3) at 37° C. for 48 hours in a 5% CO2 environment. Aliquots are taken at 0. 1, 2, 4, 7, 24 and […] and pH adjusted to pH 3 with 20% formic acid prior to analysis. Appropriate positive control compounds will be incubated in parallel, in addition to a no plasma control, sampled at 0 and 8 hours. All samples will be treated with ice-cold acetonitrile/methanol (4:1 (v/v)) containing internal standard prior to centrifugation at 2000 g and 4° C. for 10 minutes and subjected to LC-MS/MS analysis.\nThe samples are analyzed by LC-MS/MS using a 6500 (or equivalent) triple quadrupole mass spectrometer (AB Sciex) coupled to an appropriate Liquid Chromatography (LC) system. Protein binding and stability values are determined via peak area ratios using multiple reaction monitoring (MRM) parameters following compound optimisation. Multiple reaction monitoring (MRM) is a highly sensitive method of targeted mass spectrometry (MS) that can be used to selectively detect and quantify peptides based on the screening of specified precursor peptide-to-fragment ion transitions."}, "[3]": {"test": "Dog plasma protein binding (PPB)", "format": "in vitro ADME", "conditions": "pH 7.4; fraction unbound; dog serum; read-out: Dog PPB (FUplasma)", "procedure,_shortened": "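Dog serum replaced human serum, with the protocol and analysis otherwise the same as for human plasma protein binding. Values are reported as fraction unbound (Fu,plasma) expressed as a percentage.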"}, "[4]": {"test": "Human plasma protein binding (PPB)", "format": "in vitro ADME", "procedure,_shortened": "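Peptides spiked at 1000 nmol/L into pooled human K2-EDTA plasma adjusted to pH 7.4, incubated 30 min at 37 °C, then ultracentrifuged at ~450,000 g, 4 °C for 3 h. Fu derived from LC-MS/MS (MRM) peak area ratios, supernatant versus plasma.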"}, "[5]": {"test": "Pharmacokinetics in dog after IV and SC dosing", "conditions": "in vivo", "description": "Pharmacokinetic (PK) were conducted in dog in order to determine the half-life after IV and SC dosing. The peptide was dissolved in 10% DMSO/0.09% Polysorbate/PBS pH 7.4 to a concentration of 3 nmol/mL and the animal were dose with a volume of 1 mL/kg SC or IV. Blood sample were collected at 0, 0.033, 0.083, 0.25, 0.5, 1, 2, 4, 6, 8, 12, 24, 48, 72, 96, 120, 168, 336 hours for IV dosing and 0.25, 0.5, 1, 2, 4, 6, 8, 12, 24, 48, 72, 96, 120, 168, 336 for SC dosing, EDTA-K2 was used as anticoagulant. The plasma concentration of the peptide was measured using LCMS. Allometric scaling of lipidated peptide pharmacokinetics including T1/2 and MRT is known in the art for rodent to dog and mini pig and to humans. […] See for example, Discovery and Development of Liraglutide and Semaglutide. Knudsen, L. B.; Lau, J. Frontiers in Endocrinology, 2019, vol 10, Article 155."}, "[6]": {"system": "C57BL/6J mice", "test": "Oral glucose tolerance test (OGTT)", "format": "in vivo", "conditions": "3 nmol/kg s.c., 24 hours before glucose loading", "procedure,_shortened": "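Peptide or vehicle given s.c. at 0.1, 0.3, 3 or 10 nmol/kg (peptide-dependent), 24 h before oral 50% dextrose at 5 ml/kg unless stated otherwise. Blood glucose read at 0, 15, 30 and 60 min. % inhibition = (1−(AUC cpd−AUC naïve)/(AUC veh−AUC naïve))×100.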"}, "[7]": {"system": "Dogs", "format": "in vivo", "conditions": "10 nmol/kg s.c.", "description": "Dogs are transferred to an observation cage (700 mm W×700 mm D×700 mm H [W×D×H], without food) on 1 day before each apomorphine challenge. The dogs are weighed by using an electronic balance then test peptide compounds and vehicle will be administrated via the subcutaneous route. Apomorphine is challenged at 8 hr after the administration and emetic events will be monitored for 1 h by video recording. The second apomorphine challenge will be 72 hr after the administration and emetic events will be recorded by the same protocol. Emesis symptoms are continuously recorded using a video camera and stored on a blue ray disc. Observation of symptoms include retching (a rhythmic contraction of the abdomen) and vomiting (vomiting behavior, including the elimination of vomitus or similar behavior). Besides, the combination of retching and vomiting is defined as emesis, and the number of episodes, latency (time elapsed from morphine administration until the onset of the first emesis symptom), duration (time elapsed between the onset of the first and final episodes of emesis), and frequency (number of animals showing emesis/number of experimental animals) of each of these symptoms is calculated. The latency in cases where emesis symptoms are not noted is taken as the maximum value (1 h for apomorphine challenge) at the end of observation. When the duration of the emesis symptoms is less than 1 min, the duration is recorded, for convenience, as 1 min."}, "[8]": {"conditions": "pH 7.4, aqueous buffer, pH 7.4 Phosphate Buffer - Solubility, 200 mM Phosphate buffer pH 7.4"}, "[9]": {"conditions": "pH 7.4, solubility in phosphate buffer at pH 7.4, 200 mM phosphate buffer pH 7.4"}},
  "note": "Like-named read-outs stand apart in the source and are kept apart here. Starred links: 1 amine or outer side, 2 acyl side, 3 side chain; linkers in the order of their positions; H or OH if unused. Non-standard residues stand in square brackets, D forms with d. Residues, ends and D or L forms follow the SMILES beside them. Groups on a side chain read outwards from the residue. *: point of attachment. C18 diacid = O=C(O)CCCCCCCCCCCCCCCCC(=O)*; C17 diacid = O=C(O)CCCCCCCCCCCCCCCC(=O)*; γGlu = O=C(O)[C@H](CCC(=O)[*:2])N[*:1]; NMeY = CN[C@@H](Cc1ccc(O)cc1)C(=O)O; AEEA = NCCOCCOCC(=O)O; Aib = CC(C)(N)C(=O)O",
  "data": [
    {"smiles": "CC[C@H](C)[C@H](NC(=O)[C@H](CO)NC(=O)[C@H](Cc1ccc(O)cc1)NC(=O)[C@H](CC(=O)O)NC(=O)[C@H](CO)NC(=O)[C@@H](NC(=O)[C@H](Cc1ccccc1)NC(=O)[C@@H](NC(=O)CNC(=O)[C@H](CCC(=O)O)NC(=O)C(C)(C)NC(=O)[C@H](Cc1ccc(O)cc1)NC)[C@@H](C)O)[C@@H](C)CC)C(=O)N[C@@H](C)C(=O)N[C@@H](CC(C)C)C(=O)N[C@@H](CC(=O)O)C(=O)N[C@@H](CCCNC(=N)N)C(=O)N[C@@H](CCCCNC(=O)COCCOCCNC(=O)COCCOCCNC(=O)CC[C@H](NC(=O)CCCCCCCCCCCCCCCCC(=O)O)C(=O)O)C(=O)N[C@@H](Cc1c[nH]cn1)C(=O)N[C@@H](CCC(N)=O)C(=O)N[C@@H](CCC(N)=O)C(=O)N[C@@H](CC(N)=O)C(=O)N[C@@H](Cc1ccccc1)C(=O)N[C@H](C(=O)N[C@@H](CC(N)=O)C(=O)N[C@@H](Cc1c[nH]c2ccccc12)C(=O)N[C@@H](CC(C)C)C(=O)N[C@@H](CC(C)C)C(=O)N[C@@H](C)C(=O)N[C@@H](CCC(N)=O)C(=O)N[C@@H](CCCNC(=N)N)C(=O)N1CCC[C@H]1C(=O)N[C@@H](CO)C(=O)N[C@@H](CO)C(=O)NCC(=O)N[C@@H](C)C(=O)N1CCC[C@H]1C(=O)N1CCC[C@H]1C(=O)N1CCC[C@H]1C(=O)N[C@@H](CO)C(N)=O)C(C)C", "note": "[Compound 4] (H-[NMeY][Aib]EGTFISDYSIALDRK([AEEA-AEEA-γGlu-C18 diacid])HQQNFVNWLLAQRPSSGAPPPS-NH2)", "values": [
      {"measurement": "solubility", "setting": "[1]; [8]", "result": "≥ 30", "unit": "mg/mL"},
      {"measurement": "solubility", "setting": "[1]; [9]", "result": "≥ 15", "unit": "mg/mL"},
      {"measurement": "half-life at 500 nM", "setting": "[2]; both sexes, pH 7.4", "result": 17.1, "unit": "h"},
      {"measurement": "remaining at 48 h, 500 nM", "setting": "[2]; both sexes, plasma (sodium heparin), pH 7.4, 48 hr", "result": 15, "unit": "%"}
    ]},
    {"smiles": "CC[C@H](C)[C@H](NC(=O)[C@H](Cc1ccccc1)NC(=O)[C@@H](NC(=O)CNC(=O)[C@H](CCC(=O)O)NC(=O)C(C)(C)NC(=O)[C@H](Cc1ccc(O)cc1)NC)[C@@H](C)O)C(=O)N[C@@H](CO)C(=O)N[C@@H](CC(=O)O)C(=O)N[C@@H](Cc1ccc(O)cc1)C(=O)N[C@@H](CO)C(=O)N[C@H](C(=O)NC(C)(C)C(=O)N[C@@H](CC(C)C)C(=O)N[C@@H](CC(=O)O)C(=O)N[C@@H](CCCNC(=N)N)C(=O)N[C@@H](CCCCNC(=O)COCCOCCNC(=O)COCCOCCNC(=O)CC[C@H](NC(=O)CC[C@H](NC(=O)CCCCCCCCCCCCCCCC(=O)O)C(=O)O)C(=O)O)C(=O)N[C@@H](C)C(=O)N[C@@H](CCC(N)=O)C(=O)NC(C)(C)C(=O)N[C@@H](CC(N)=O)C(=O)N[C@@H](Cc1ccccc1)C(=O)N[C@H](C(=O)N[C@@H](CC(N)=O)C(=O)N[C@@H](Cc1c[nH]c2ccccc12)C(=O)N[C@@H](CC(C)C)C(=O)N[C@@H](CC(C)C)C(=O)N[C@@H](C)C(=O)N[C@@H](CCC(N)=O)C(=O)N[C@@H](CCCNC(=N)N)C(=O)N1CCC[C@H]1C(=O)N[C@@H](CO)C(=O)N[C@@H](CO)C(=O)NCC(=O)N[C@@H](C)C(=O)N1CCC[C@H]1C(=O)N1CCC[C@H]1C(=O)N1CCC[C@H]1C(=O)N[C@@H](CO)C(N)=O)C(C)C)[C@@H](C)CC", "note": "[Compound 15] (H-[NMeY][Aib]EGTFISDYSI[Aib]LDRK([AEEA-AEEA-γGlu-γGlu-C17 diacid])AQ[Aib]NFVNWLLAQRPSSGAPPPS-NH2)", "values": [
      {"measurement": "fraction unbound at 30 min, 1000 nmol/L", "setting": "[3]", "result": 0.0021},
      {"measurement": "fraction unbound at 30 min, 1000 nmol/L", "setting": "[4]; both sexes, pH 7.4, fraction unbound, human plasma, 1000 nmol/L peptide, ultracentrifugation, read-out: Human PPB (FUplasma)", "result": 0.0017},
      {"measurement": "free unbound peptide in human plasma (in words)", "setting": "[4]; judged for once per week (QW) dosing", "result": "optimum free unbound peptide"},
      {"measurement": "half-life", "setting": "[5]; IV 3 nmol/kg, read-out: IV T½ (converted)", "result": 57, "unit": "h"},
      {"measurement": "MRT last", "setting": "[5]; SC 3 nmol/kg, read-out: SC MRT 0-last", "result": 64, "unit": "h"},
      {"measurement": "solubility", "setting": "[1]; [8]", "result": "≥ 30", "unit": "mg/mL"},
      {"measurement": "solubility", "setting": "[1]; [9]", "result": "≥ 15", "unit": "mg/mL"},
      {"measurement": "half-life at 500 nM", "setting": "[2]; both sexes, pH 7.4", "result": "> 48", "unit": "h"},
      {"measurement": "% Remaining at 48 hr", "setting": "[2]; 48 hr", "result": 131.1, "unit": "%"}
    ]},
    {"smiles": "CC[C@H](C)[C@H](NC(=O)[C@H](CO)NC(=O)[C@H](Cc1ccc(O)cc1)NC(=O)[C@H](CC(=O)O)NC(=O)[C@H](CO)NC(=O)[C@@H](NC(=O)[C@H](Cc1ccccc1)NC(=O)[C@@H](NC(=O)CNC(=O)[C@H](CCC(=O)O)NC(=O)C(C)(C)NC(=O)[C@@H](N)Cc1ccc(O)cc1)[C@@H](C)O)[C@@H](C)CC)C(=O)N[C@@H](C)C(=O)N[C@@H](CCCCNC(=O)CNC(=O)CNC(=O)CNC(=O)CNC(=O)CNC(=O)CCCCCCCCCCCCCCCCC(=O)O)C(=O)N[C@@H](CC(=O)O)C(=O)N[C@@H](CCCNC(=N)N)C(=O)NC(C)(C)C(=O)N[C@@H](C)C(=O)N[C@@H](CCC(N)=O)C(=O)NC(C)(C)C(=O)N[C@@H](CC(=O)O)C(=O)N[C@@H](Cc1ccccc1)C(=O)N[C@H](C(=O)N[C@@H](CC(N)=O)C(=O)N[C@@H](Cc1c[nH]c2ccccc12)C(=O)N[C@@H](CC(C)C)C(=O)N[C@@H](CC(C)C)C(=O)N[C@@H](C)C(=O)N[C@@H](CCC(N)=O)C(=O)N[C@@H](CO)C(=O)N1CCC[C@H]1C(=O)NCC(=O)O)C(C)C", "note": "[Compound 128]", "values": [
      {"measurement": "Oral Glucose Tolerance Test Percent decrease in blood glucose AUC (%) over 60 mins", "setting": "[6]", "result": "57% (3 nmol/kg)"},
      {"measurement": "% inhibition of emetic events at doses (nmol/kg) shown in dog apomorphine model", "setting": "[7]; after 8 hrs (upper)", "result": "56% (10 nmol/kg)"},
      {"measurement": "% inhibition of emetic events at doses (nmol/kg) shown in dog apomorphine model", "setting": "[7]; after 72 hours (lower)", "result": "60% (10 nmol/kg)"},
      {"measurement": "solubility", "setting": "[1]; pH 7.4", "result": "≥ 15", "unit": "mg/mL"},
      {"measurement": "solubility", "setting": "[1]; pH 7.4, aqueous buffer", "result": "≥ 30", "unit": "mg/mL"}
    ]}
  ]
}
